Our source for the EC50 values is US20250170266A1 (ZYMEWORKS BC INC., priority 2022, published 2025).

What all share (type): cell-based
In one assay the target is T1, hTLR7 (Homo sapiens, UniProt Q9NYK1).
T1 construct: host or cells: HEK-Blue hTLR7 reporter cells (HEK293-derived, own knowledge)
T1 sequence (Q9NYK1 27-1049): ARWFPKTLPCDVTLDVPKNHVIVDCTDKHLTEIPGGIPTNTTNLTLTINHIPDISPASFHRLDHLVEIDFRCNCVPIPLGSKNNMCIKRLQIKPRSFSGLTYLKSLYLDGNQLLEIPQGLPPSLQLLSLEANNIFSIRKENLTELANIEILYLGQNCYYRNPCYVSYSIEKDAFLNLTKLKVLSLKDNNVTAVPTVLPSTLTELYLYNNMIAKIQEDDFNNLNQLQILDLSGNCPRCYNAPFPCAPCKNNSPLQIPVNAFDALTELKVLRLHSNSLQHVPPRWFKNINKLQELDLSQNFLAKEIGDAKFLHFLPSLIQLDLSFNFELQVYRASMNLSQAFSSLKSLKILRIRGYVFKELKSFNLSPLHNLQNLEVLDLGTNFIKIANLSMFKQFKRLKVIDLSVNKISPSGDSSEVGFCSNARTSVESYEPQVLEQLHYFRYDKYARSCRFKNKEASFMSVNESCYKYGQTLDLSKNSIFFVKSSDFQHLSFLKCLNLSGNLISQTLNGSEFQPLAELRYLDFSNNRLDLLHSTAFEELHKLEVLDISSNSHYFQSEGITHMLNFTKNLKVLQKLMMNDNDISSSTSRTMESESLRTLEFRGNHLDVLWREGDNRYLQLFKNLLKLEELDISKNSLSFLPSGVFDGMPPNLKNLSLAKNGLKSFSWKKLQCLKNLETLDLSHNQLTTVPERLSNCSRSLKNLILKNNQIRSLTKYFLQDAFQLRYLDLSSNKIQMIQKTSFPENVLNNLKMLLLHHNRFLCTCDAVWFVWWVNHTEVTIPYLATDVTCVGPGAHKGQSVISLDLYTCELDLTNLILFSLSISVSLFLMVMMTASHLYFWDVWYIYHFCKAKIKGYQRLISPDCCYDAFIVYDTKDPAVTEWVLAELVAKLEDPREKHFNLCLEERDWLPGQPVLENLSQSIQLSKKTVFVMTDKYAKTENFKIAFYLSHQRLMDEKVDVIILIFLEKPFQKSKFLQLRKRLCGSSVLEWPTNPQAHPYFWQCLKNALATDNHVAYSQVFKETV
Nature of the assay: Reporter Gene Assay (RGA), HEK-Blue hTLR7 reporter cells, SEAP readout. As to conditions: overnight incubation, SEAP absorbance 620 nm. The gist of the method:
(§1)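 HEK-Blue reporter cells expressing human or mouse TLR7 (1.5×10^4 cells) were treated with an 11-point, 4-fold compound titration from 15 pM in HEK-Blue Detection medium. Incubation was overnight at 37° C with 5% CO2. Secreted embryonic alkaline phosphatase was read as absorbance at 620 nm.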
For orientation: In a reporter assay the amount or activity of a reporter protein is the signal.

In a further assay the target is T2, mTLR7 (Mus musculus, UniProt P58681).
T2 construct: host or cells: HEK-Blue mTLR7 reporter cells (HEK293-derived, own knowledge)
T2 sequence (P58681 27-1050): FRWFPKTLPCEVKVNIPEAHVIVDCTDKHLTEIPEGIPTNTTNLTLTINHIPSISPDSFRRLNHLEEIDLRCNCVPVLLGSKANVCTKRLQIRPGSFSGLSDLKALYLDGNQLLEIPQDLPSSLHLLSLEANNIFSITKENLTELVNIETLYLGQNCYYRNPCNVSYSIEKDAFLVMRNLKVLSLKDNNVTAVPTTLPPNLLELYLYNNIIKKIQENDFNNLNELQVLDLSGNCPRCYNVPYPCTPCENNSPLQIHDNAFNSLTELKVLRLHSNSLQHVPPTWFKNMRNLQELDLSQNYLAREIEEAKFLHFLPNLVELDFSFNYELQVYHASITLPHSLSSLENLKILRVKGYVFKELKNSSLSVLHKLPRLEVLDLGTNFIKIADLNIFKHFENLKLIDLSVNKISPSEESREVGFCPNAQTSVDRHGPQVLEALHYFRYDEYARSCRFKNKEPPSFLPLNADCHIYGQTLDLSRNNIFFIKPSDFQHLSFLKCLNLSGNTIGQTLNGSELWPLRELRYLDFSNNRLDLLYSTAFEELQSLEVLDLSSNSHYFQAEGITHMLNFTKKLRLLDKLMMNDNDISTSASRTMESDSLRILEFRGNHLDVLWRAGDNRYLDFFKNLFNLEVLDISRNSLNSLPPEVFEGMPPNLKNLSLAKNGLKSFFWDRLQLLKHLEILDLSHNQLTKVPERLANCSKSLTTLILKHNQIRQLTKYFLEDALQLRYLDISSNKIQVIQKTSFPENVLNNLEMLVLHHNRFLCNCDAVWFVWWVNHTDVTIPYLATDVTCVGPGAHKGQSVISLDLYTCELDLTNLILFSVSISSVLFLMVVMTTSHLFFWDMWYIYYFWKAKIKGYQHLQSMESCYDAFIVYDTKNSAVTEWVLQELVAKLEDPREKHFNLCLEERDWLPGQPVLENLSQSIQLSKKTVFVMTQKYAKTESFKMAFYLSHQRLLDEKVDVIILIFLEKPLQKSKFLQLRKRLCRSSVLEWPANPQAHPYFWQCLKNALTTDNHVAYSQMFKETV
Nature of the assay: Reporter Gene Assay (RGA), HEK-Blue mTLR7 reporter cells, SEAP readout. As to conditions: overnight incubation, SEAP absorbance 620 nm. In outline:
as §1

Assay [1] relates to Human peripheral blood mononuclear cells (PBMCs). Nature of the assay: Human PBMC Assay, cytokine release (HTRF). The following applies: PBMC, 24 hours. The gist of the method:
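Cryopreserved human PBMCs, rested overnight with 10 ng/ml hIL3, then 300,000 cells/well treated 24 h at 37° C with compound (4-fold, 11-point titration from 15 μM) in RPMI+10% FBS. Supernatant hIL6, hTNFα and hIFNα measured by HTRF; growth medium as negative control.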

Another assay has as its system Mouse splenocytes. Description: Mouse Splenocyte Assay, cytokine release (HTRF). The following applies: Splenocyte, 24 hours, mIL6 in supernatant, read-out: Splenocyte IL6 EC50. The procedure:
Mouse splenocytes were isolated from fresh mouse spleens. Briefly, spleens were harvested from female balb/c nude mice and transferred to a 70 μm cell strainer. The cell strainer was subsequently placed in a 6-well suspension culture plate containing 5 mL media (RPMI+10% FBS). The spleens were crushed against the cell strainer using the flat end of a 10 mL syringe plunger and the cell strainer was washed with 5 mL media. The cell strainer was discarded, and the cell suspension was washed in PBS. Red blood cells were removed using PharmaLyse (BD). The cell suspension was washed in media, resuspended in CryoStor® CS10 ([…]) and frozen. On assay day, mouse splenocytes were thawed in warm assay buffer (RPMI+10% FBS). Cells were spun down and resuspended in fresh assay buffer. 100,000 cells were added to each well of plates containing test compound. For test compound preparation, each compound was initially diluted to 1 mM in DMSO and further diluted in assay buffer. A 4-fold 11-point titration starting from 15 μM was performed. Cells were incubated with test compound at 37° C.+5% CO2 for 24 hours before supernatant was harvested. Murine IL6 (mIL6) and murine TNFα (mTNFα) were quantified in the supernatant using homogeneous time resolved fluorescence (Cisbio).
Each assay included a positive control compound (referred to herein as “benchmark,” see, e.g., TABLE 3 below, and taken from International Patent Publication No. WO2017/072662, structure shown below) and a negative control (growth medium). […] The structure of the benchmark compound from International Patent Publication No. WO 2017/072662 is as follows: […]
In general terms: In TR-FRET formats the signal depends on donor and acceptor labels being close together.

Setting [2] is: hIFNα in supernatant, EC50 values approximated and divided into groups, read-out: PBMC IFNa EC50.
Where [3] appears, read: hIL6 in supernatant, read-out: PBMC IL6 EC50.

Like-named read-outs stand apart in the source and are kept apart here. Bounds are passed on as bounds.

What is called EC50 is the concentration that produces a half-maximal response.

For `CCCCCNc1nc(N)c2nc(O)n(Cc3ccc(CNCCCCN)cc3)c2n1` [Compound 190, 6-amino-9-(4-(((4-aminobutyl)amino)methyl)benzyl)-2-(pentylamino)-9H-purin-8-ol], the concentration giving a half-maximal response (EC50) was 1420 nM at hTLR7; 80.8 nM on mTLR7; 1 to 10 nM in assay [1] (setting [2]); 131 nM in assay [1] (setting [3]); 106 nM in the assay with Mouse splenocytes.
On to `CCCN(CCC)Cc1ccc(Cn2c(O)nc3c(N)nc(OCC)nc32)c(OC)c1` [Compound 125, 6-amino-9-(4-((dipropylamino)methyl)-2-methoxybenzyl)-2-ethoxy-9H-purin-8-ol], for which the EC50 at hTLR7 is 0.5 nM; on mTLR7 it was 4.3 nM; in assay [1] (setting [2]), 1 to 10 nM; in assay [1] (setting [3]) it was 2230 nM; with Mouse splenocytes, 171 nM.
The matching figures for `CCOc1nc(N)c2nc(O)n(Cc3ccc(CN[C@@H](CO)C(=O)O)cc3OC)c2n1` [Compound 119, (4-((6-amino-2-ethoxy-8-hydroxy-9H-purin-9-yl)methyl)-3-methoxybenzyl)-L-serine]: 259 nM, 1960 nM, greater than 10 nM, 3910 nM and no less than 1000 nM.
The matching figures for `CCOc1nc(N)c2nc(O)n(Cc3ccc(CN(CC)CC)cc3OC)c2n1` [Compound 102, 6-amino-9-(4-((diethylamino)methyl)-2-methoxybenzyl)-2-ethoxy-9H-purin-8-ol]: 2 nM, 5 nM, less than 0.1 nM, 69.1 nM and 99.7 nM.
The matching figures for `CCCCOc1nc(N)c2nc(O)n(Cc3ccc(CN4CCNCC4)cc3)c2n1` [Compound 166, 6-amino-2-butoxy-9-(4-(piperazin-1-ylmethyl)benzyl)-9H-purin-8-ol]: less than 0.1 nM, 11 nM, greater than 10 nM, 1570 nM and 150 nM.
With `CCCCOc1nc(N)c2nc(O)n(Cc3ccc(CN4CCC5(CCNCC5)CC4)cc3OC)c2n1` [Compound 157, 9-(4-((3,9-diazaspiro[5.5]undecan-3-yl)methyl)-2-methoxybenzyl)-6-amino-2-butoxy-9H-purin-8-ol], the EC50 on hTLR7 was 0.9 nM; at mTLR7, 3.7 nM; in assay [1] (setting [2]), greater than 10 nM; in assay [1] (setting [3]), 473 nM; in the assay with Mouse splenocytes it was 9.4 nM.
The matching figures for `CCOc1nc(N)c2nc(O)n(Cc3ccc(CNC4CC(F)(F)C4)cc3OC)c2n1` [Compound 109, 6-amino-9-(4-(((3,3-difluorocyclobutyl)amino)methyl)-2-methoxybenzyl)-2-ethoxy-9H-purin-8-ol]: 56 nM, 13.1 nM, 1 to 10 nM, 456 nM and 166 nM.
For the compound `CCCCOc1nc(N)c2nc(O)n(Cc3ccc(CCCN4CCNCC4)cc3OC)c2n1` [Compound 173, 6-amino-2-butoxy-9-(2-methoxy-4-(3-(piperazin-1-yl)propyl)benzyl)-9H-purin-8-ol], the 50% effective concentration (EC50) is 0.2 nM at hTLR7; 0.6 nM on mTLR7; 1 to 10 nM in assay [1] (setting [2]); 1800 nM in assay [1] (setting [3]); 5 nM with Mouse splenocytes.
With `CCCCOc1nc(N)c2nc(O)n(Cc3ccc(CN)cc3OC)c2n1` [Compound 162, 6-amino-9-(4-(aminomethyl)-2-methoxybenzyl)-2-butoxy-9H-purin-8-ol], the EC50 is 1.7 nM on hTLR7, 2.3 nM on mTLR7, 1 to 10 nM in assay [1] (setting [2]) and 1.3 nM in the assay on Mouse splenocytes.
For the compound `CCOc1nc(N)c2nc(O)n(Cc3ccc(CNCc4ccc(CN5CCC(NC(=O)OC(C)(C)C)CC5)cc4)cc3OC)c2n1` [Compound 143, tert-butyl-(1-(4-(((4-((6-amino-2-ethoxy-8-hydroxy-9H-purin-9-yl)methyl)-3-methoxybenzyl)amino)methyl)benzyl)piperidin-4-yl)carbamate], the EC50 on hTLR7 was 0.2 nM; at mTLR7 it was 15.1 nM; in assay [1] (setting [2]) it was less than 0.1 nM; in assay [1] (setting [3]), 27.1 nM; in the assay on Mouse splenocytes it was 9.6 nM.
The matching figures for `CCOc1nc(N)c2nc(O)n(Cc3ccc(CN[C@H](CO)Cc4ccccc4)cc3OC)c2n1` [Compound 118, (S)-6-amino-2-ethoxy-9-(4-(((1-hydroxy-3-phenylpropan-2-yl)amino)methyl)-2-methoxybenzyl)-9H-purin-8-ol]: 2.04 nM, 11.4 nM, 0.1 to 1 nM, 1400 nM and 639 nM.
The matching figures for `CCOc1nc(N)c2nc(O)n(Cc3ccc(CN4CCN(CCNC(=O)CC(SC[C@@H](N)C(=O)O)C(=O)O)CC4)cc3OC)c2n1` (stereo partly drawn) [Compound 113, 2-(((S)-2-amino-2-carboxyethyl)thio)-4-((2-(4-(4-((6-amino-2-ethoxy-8-hydroxy-9H-purin-9-yl)methyl)-3-methoxybenzyl)piperazin-1-yl)ethyl)amino)-4-oxobutanoic Acid]: 187 nM, 662 nM, greater than 10 nM, 1360 nM and 1180 nM.
